The record followed here is article PMC6195846 (Molecular microbiology, 2018).

SMILES strings stand for the structures.

Assay [1] addresses T1, RsBluE (Cereibacter sphaeroides, UniProt Q3IZR9). The experiment in a line: ADP-Glo ATPase assay. In kind it is biochemical. The following applies: ATPase inhibition by product; ADP 20 mM; sarkosyl-solubilized enzyme; 25 C. (In general: In ADP-Glo the light output rises with the ADP produced.)
Assay [2] has as its target T1, RsBluE. Kind of assay: ADP-Glo ATPase assay. The following applies: ATPase inhibition; sodium pyrophosphate 10 mM; sarkosyl-solubilized enzyme; 25 C. In kind it is biochemical.

As to `Nc1ncnc2c1ncn2[C@@H]1O[C@H](COP(=O)(O)OP(=O)(O)O)[C@@H](O)[C@H]1O` [ADP], on RsBluE [1], the “% decrease in activity at 20 mM” value was 52%.
Consider `O=P(O)(O)OP(=O)(O)O` [PPi], for which, on RsBluE [2], the “% decrease in activity at 10 mM” value is given as 12%.
